Test results as given in patent publication US20170202782A1 (Abraxis BioScience, LLC, priority 2014, published 2017).

How the values were obtained:
[1] = tested on: human pancreatic carcinoma MiaPACA2 xenograft tumors; assay: CIVO arrayed microinjection into xenografted MiaPACA2 tumors, immunofluorescence (CC3, pHH3)
Protocol: Microinjections were performed using the CIVO™ arrayed microinjection device (Presage Biosciences, Seattle Wash.). This device enables simultaneous delivery of multiple drug samples, each individually, directly into spatially defined positions within a living tumor. The CIVO device having a 5 needle array was inserted transcutaneously into flank tumors of anesthetized mice.
24 hours later, tumors were resected and sectioned across the axis of injection to produce histological sections of tumor that show the 5 different sites of injection.
Circular regions of interests (ROI) centered on the injection sites were inscribed. Within each ROI, the fraction of cells expressing CC3 was mapped as a function of radial distance from the injection site. To generate radial response plots, calculations were made at 100 micron intervals and were based on all cells within a 100 micron wide band centered at each radial distance. Measurements began at 200 microns to exclude regions directly affected by needle induced injury.
Tumors from a first set of mice were processed for immunofluorescence analysis with CC3 antibodies 24 hours after injection (FIG. 3A), and tumors from a second set were processed for analysis with CC3 antibodies 48 hours after injection (FIG. 3B). […]

Bcl-w = molecular target: T1, Bcl-w (Homo sapiens, UniProt Q92843); details: cited from earlier work
T1 sequence (Q92843 1-193): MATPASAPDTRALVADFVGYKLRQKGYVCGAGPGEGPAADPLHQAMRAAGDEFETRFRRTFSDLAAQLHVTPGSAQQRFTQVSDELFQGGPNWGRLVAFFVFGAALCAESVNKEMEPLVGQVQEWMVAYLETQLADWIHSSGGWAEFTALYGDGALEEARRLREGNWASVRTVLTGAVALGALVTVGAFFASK

Structure (SMILES)	CC3 positive cells at the site of injection ([1]; MiaPACA2 tumors, 24 hours, diminished with increasing radial distance (FIG. 2))	synergy with Abraxane in inducing tumor cell death ([1]; solid tumor models, combination with Abraxane (summary statement))	Ki (Bcl-w)
CC1(C)CCC(CN2CCN(c3ccc(C(=O)NS(=O)(=O)c4ccc(NCC5CCOCC5)c([N+](=O)[O-])c4)c(Oc4cnc5[nH]ccc5c4)c3)CC2)=C(c2ccc(Cl)cc2)C1 [ABT-199]	increase	not observed	
CC1(C)CCC(c2ccc(Cl)cc2)=C(CN2CCN(c3ccc(C(=O)NS(=O)(=O)c4ccc(N[C@H](CCN5CCOCC5)CSc5ccccc5)c(S(=O)(=O)C(F)(F)F)c4)cc3)CC2)C1 [ABT-263]			≤ 1 nM
